Assay results published in patent US9113629B2, “4-amino-6-(4-substituted-phenyl)-picolinates and 6-amino-2-(4-substituted-phenyl)-pyrimidine-4-carboxylates and their use as herbicides” (DOW AGROSCIENCES LLC, priority 2013, dated 2015).
Like-named read-outs stand apart in the source and are kept apart here.

Columns and labels:
[1] = system: Key Grass and Sedge Weeds as well as Grass Crops; experiment: Post-emergent Test II herbicidal activity (Table 6); type: in vivo; conditions: post-emergence, 336 h; for pest or weed control at 70 g/ha: application rate 70 g ai/ha; for pest or weed control at 140 g/ha: application rate 140 g ai/ha
How it was run: (§1)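 Injury was rated visually 14 d after treatment on a 0–100% scale against untreated controls. Test compounds, formulated with crop oil concentrate and surfactant and serially diluted down to 1/16× of the top rate, were applied by track sprayer at 187 L/ha onto first- to second-true-leaf seedlings.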

[2] = system: Key Broadleaf Weed and Crop Species; experiment: Post-emergent Test II herbicidal activity (Table 5); type: in vivo; conditions: post-emergence, 336 h, post-emergent, 14 days after application; for pest or weed control at 70 g/ha: 70 g ai/ha; for pest or weed control at 140 g/ha: 140 g ai/ha
How it was run: as §1

[3] = Triticum aestivum, TRZSS (wheat), read-out: Visual Growth Reduction (%) 14 Days After Application, TRZSS
[4] = CYPES: yellow nutsedge (Cyperus esculentus), read-out: Visual Growth Reduction (%) 14 Days After Application, CYPES
[5] = DIGSA: crabgrass (Digitaria sanguinalis), read-out: Visual Growth Reduction (%) 14 Days After Application, DIGSA
[6] = ECHCG: barnyardgrass (Echinochloa crus-galli), read-out: Visual Growth Reduction (%) 14 Days After Application, ECHCG
[7] = ORYSA: rice (Oryza sativa), read-out: Visual Growth Reduction (%) 14 Days After Application, ORYSA
[8] = SETFA: giant foxtail (Setaria faberi), read-out: Visual Growth Reduction (%) 14 Days After Application, SETFA
[9] = SORVU: grain sorghum (Sorghum vulgare), read-out: Visual Growth Reduction (%) 14 Days After Application, SORVU
[10] = ZEAMX: maize, corn (Zea mays), read-out: Visual Growth Reduction (%) 14 Days After Application, ZEAMX
[11] = ABUTH: velvetleaf (Abutilon theophrasti), read-out: Visual Growth Reduction (%) 14 Days After Application ABUTH
[12] = AMARE: redroot pigweed (Amaranthus retroflexus), read-out: Visual Growth Reduction (%) 14 Days After Application AMARE
[13] = BRSNN: oilseed-rape, canola (Brassica napus), read-out: Visual Growth Reduction (%) 14 Days After Application BRSNN
[14] = CHEAL: lambsquarters (Chenopodium album), read-out: Visual Growth Reduction (%) 14 Days After Application CHEAL
[15] = EPHHL: wild poinsettia (Euphorbia heterophylla), read-out: Visual Growth Reduction (%) 14 Days After Application EPHHL
[16] = HELAN: sunflower (Helianthus annuus), read-out: Visual Growth Reduction (%) 14 Days After Application HELAN
[17] = VIOTR: wild pansy (Viola tricolor), read-out: Visual Growth Reduction (%) 14 Days After Application VIOTR

| Compound | pest or weed control at 70 g/ha [1, 3] | pest or weed control at 140 g/ha [1, 3] | pest or weed control at 70 g/ha [1, 4] | pest or weed control at 140 g/ha [1, 4] | pest or weed control at 70 g/ha [1, 5] | pest or weed control at 140 g/ha [1, 5] | pest or weed control at 70 g/ha [1, 6] | pest or weed control at 140 g/ha [1, 6] | pest or weed control at 70 g/ha [1, 7] | pest or weed control at 140 g/ha [1, 7] | pest or weed control at 70 g/ha [1, 8] | pest or weed control at 140 g/ha [1, 8] | pest or weed control at 70 g/ha [1, 9] | pest or weed control at 140 g/ha [1, 9] | pest or weed control at 70 g/ha [1, 10] | pest or weed control at 140 g/ha [1, 10] | pest or weed control at 70 g/ha [2, 11] | pest or weed control at 140 g/ha [2, 11] | pest or weed control at 70 g/ha [2, 12] | pest or weed control at 140 g/ha [2, 12] | other results |
| --- | --- | --- | --- | --- | --- | --- | --- | --- | --- | --- | --- | --- | --- | --- | --- | --- | --- | --- | --- | --- | --- |
| Nc1cc(-c2ccc(I)c(F)c2)nc(C(=O)O)c1Cl [Compound 77, 4-amino-3-chloro-6-(3-fluoro-4-iodophenyl)picolinic acid] | 45 to 59% | 45 to 59% | 0 to 29% | 45 to 59% | 75 to 84% | 85 to 94% | 60 to 74% | 60 to 74% | 0 to 29% | 0 to 29% | 0 to 29% | 0 to 29% | 45 to 59% | 45 to 59% | 0 to 29% | 0 to 29% | 85 to 94% | 95 to 100% | 95 to 100% | 95 to 100% | pest or weed control at 70 g/ha [2, 13]: 75 to 84%; pest or weed control at 140 g/ha [2, 13]: 85 to 94%; pest or weed control at 70 g/ha [2, 14]: 95 to 100%; pest or weed control at 140 g/ha [2, 14]: 95 to 100%; pest or weed control at 70 g/ha [2, 15]: 95 to 100%; pest or weed control at 140 g/ha [2, 15]: 95 to 100%; pest or weed control at 70 g/ha [2, 16]: 85 to 94%; pest or weed control at 140 g/ha [2, 16]: 85 to 94%; pest or weed control at 70 g/ha [2, 17]: 0 to 29%; pest or weed control at 140 g/ha [2, 17]: 0 to 29% |
| Cc1c(-c2ccc(Br)cc2)nc(C(=O)O)c(Cl)c1N [Compound 78, 4-Amino-6-(4-bromophenyl)-3-chloro-5-methylpicolinic acid] | 45 to 59% | 45 to 59% | 0 to 29% | 95 to 100% | 0 to 29% | 0 to 29% | 0 to 29% | 0 to 29% | 0 to 29% | 0 to 29% | 45 to 59% | 60 to 74% | 0 to 29% | 0 to 29% | 0 to 29% | 30 to 44% | 95 to 100% | 95 to 100% | 85 to 94% | 95 to 100% | pest or weed control at 70 g/ha [2, 13]: 85 to 94%; pest or weed control at 140 g/ha [2, 13]: 95 to 100%; pest or weed control at 70 g/ha [2, 14]: 85 to 94%; pest or weed control at 140 g/ha [2, 14]: 85 to 94%; pest or weed control at 70 g/ha [2, 15]: 0 to 29%; pest or weed control at 140 g/ha [2, 15]: 0 to 29%; pest or weed control at 70 g/ha [2, 16]: 95 to 100%; pest or weed control at 140 g/ha [2, 16]: 95 to 100%; pest or weed control at 70 g/ha [2, 17]: 0 to 29%; pest or weed control at 140 g/ha [2, 17]: 0 to 29% |
